Assay results from patent EP0562849A2, “Steroid derivatives” (priority 1992, dated 1993).
“And” between values parts separate entries of the source, which are not always exact repeats. Identical values can stand only once.

Tests used:
[1] = tested on: human LDL receptor promoter; test: in vitro Luciferase Activity Test (LDL receptor promoter-luciferase reporter in recombinant CHO cells); assay type: cell-based; conditions: maximum activity (%) over control, 15% luciferase activity cutoff point (footnote 2)
How it was run: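 Stably transfected CHO clone S27/B30 carries the 1546 bp human LDL receptor promoter driving firefly luciferase; an SV40 promoter-luciferase CHO line serves as nonspecific-transcription control. Assay medium is DMEM/Ham's F-12 (3:1) with 20 mM HEPES, 0.5% bovine albumin and 0.5 µg/ml 25-hydroxycholesterol.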

Syrian Golden hamsters = test: In vivo serum cholesterol lowering in hamsters fed a cholesterol test diet; conditions: hamsters
Description: Syrian Golden hamsters were fed a cholesterol test diet made of 10% coconut oil and 0.12% cholesterol (by weight) in Purina 5001 Rodent Chow to induce hypercholesteriolemia.
After two weeks on the cholesterol test diet the hamsters were bled from the orbital sinium under light CO2 anesthesia. Serum was prepared and analyzed for cholesterol using a commercial test kit (Cholesterol High Performance, Single Vial™, product of Boehringer Mannheim Corp., Indianapolis, IN, USA). The hamsters were separated into groups of six animals, such that each group had approximately the same mean serum cholesterol levels. Selected compounds of the invention were incorporated into the Cholesterol Test Diet at 0.2% (w/w) and fed to the hamsters for one week. A control group of hamsters continued on the Cholesterol Test Diet during the same one-week period. The dose of test compounds of the invention was equivalent to 100 mg/kg/day based on the weight of the hamsters and their diet consumption. Upon completion of the test period, the animals were bled and serum cholesterol determined as above.
Mean serum cholesterol values from the test hamsters were compared to values from the control group and tested for significance at the Z.05 level using Dunnett's test.

African green monkeys = test: Monkey pilot study of plasma cholesterol levels on a hypercholesterolemic diet; assay type: in vivo; conditions: for Plasma Cholesterol Levels, individual animals: animals 1-6; for Plasma Cholesterol Levels, Mean: mean of six animals
Description: To study the effect in short term lowering of plasma cholesterol concentrations in African green monkeys.
Six African green monkeys were given a hypercholesterolemic diet containing 16.4% lard and 0.33% cholesterol for two weeks to establish a baseline cholesterol level. Thereafter, two daily doses of [14a,5a]-4-(2-propenyl)cholestan-3a-ol, the compound of Example 5, were administered in their feed at 25 mg/kg/day total daily dosage. After ten days the drug dose was increased to 50 mg/kg/day for an additional 3 weeks, followed by a washout period when no drug was administered and the hypercholesterolemic diet was maintained. Blood samples were drawn on the days indicated and plasma was prepared foranalysis. Cholesterol was determined by standard enzymatic techniques(method of Allain et aI., using diagnostics high performance Cholesterol Reagent No. 236691, product of Boehringer Mannheim Co., Indianapolis, Indiana USA).

## C=CC[C@@H]1[C@H](O)CC[C@@]2(C)[C@H]1CC[C@@H]1[C@@H]2CC[C@]2(C)[C@@H]([C@H](C)CCCC(C)C)CC[C@@H]12 [Example 5, [4a,5a]-4-(2-propenyl)cholestan-3a-ol]
[1]; Homo sapiens, CHO, read-out: MA%
  Emax: 121%
[1]
  MA%: 120% and 135%
Syrian Golden hamsters; Mesocricetus auratus, feed or water, 168 h, 0.2% (w/w) in diet for one week (100 mg/kg/day), negative values = serum cholesterol increased relative to control, read-out: Percent Lowering of Cholesterol from Control Value Mean
  inhibition in vivo at 100 mg/kg/day: 49.2%
Syrian Golden hamsters; 0.2% (w/w) in Cholesterol Test Diet for one week, equivalent to 100 mg/kg/day, groups of six, control mean 337, listed as (2)
  Serum Cholesterol Mean: 171 mg/dL
African green monkeys; Day 4, dose 50 mg/kg/day in feed, 50 mg/kg/day
  Plasma Cholesterol Levels, individual animals: 184 and 878 and 155 and 159 and 148 and 211
African green monkeys; Day 4, dose 50 mg/kg/day
  Plasma Cholesterol Levels, Mean: 205
African green monkeys; Day 5, dose 25 mg/kg/day in feed, 25 mg/kg/day
  Plasma Cholesterol Levels, individual animals: 268 and 411 and 175 and 182 and 189 and 252
African green monkeys; Day 5, dose 25 mg/kg/day, Day 0 mean 252
  Plasma Cholesterol Levels, Mean: 244
African green monkeys; Day 7 Washout (no drug, diet maintained)
  Plasma Cholesterol Levels, individual animals: 209 and 251 and 165 and 192 and 174 and 200
African green monkeys; Day 7 Washout
  Plasma Cholesterol Levels, Mean: 199
African green monkeys; Day 8, dose 25 mg/kg/day in feed, 25 mg/kg/day
  Plasma Cholesterol Levels, individual animals: 208 and 386 and 172 and 184 and 174 and 249
African green monkeys; Day 8, dose 25 mg/kg/day
  Plasma Cholesterol Levels, Mean: 226
African green monkeys; Day 12 (50 mg/kg/day per method)
  Plasma Cholesterol Levels, Mean: 190
African green monkeys; Day 12 (dose not given; 50 mg/kg/day per method), 50 mg/kg/day
  Plasma Cholesterol Levels, individual animals: 172 and 276 and 159 and 169 and 157 and 206
African green monkeys; Day 14 Washout (no drug, diet maintained)
  Plasma Cholesterol Levels, individual animals: 226 and 311 and 176 and 159 and 173 and 213
African green monkeys; Day 14 Washout
  Plasma Cholesterol Levels, Mean: 210
African green monkeys; Day 20 (50 mg/kg/day per method)
  Plasma Cholesterol Levels, Mean: 192
African green monkeys; Day 20 (dose not given; 50 mg/kg/day per method), 50 mg/kg/day
  Plasma Cholesterol Levels, individual animals: 188 and 314 and 143 and 161 and 142 and 206
African green monkeys; Day 21 Washout (no drug, diet maintained)
  Plasma Cholesterol Levels, individual animals: 270 and 344 and 193 and 168 and 216 and 246
African green monkeys; Day 21 Washout
  Plasma Cholesterol Levels, Mean: 240
African green monkeys; conclusion of the pilot study, 25 then 50 mg/kg/day in feed
  lowering plasma cholesterol levels: effective in lowering plasma cholesterol levels
